Experiments:
Cdk4/CyclinD1 = Cdk4/CyclinD1 (Homo sapiens (Human), UniProt P11802); test: Cdk4 kinase inhibition assay with recombinant Cdk4/CyclinD1, Rb substrate, [33P]-ATP filter plate; format: biochemical; settings: 25 μM ATP, read-out: Cdk 4 IC50
Summary of the method: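 Recombinant Cdk4/CyclinD1 or Cdk6/CyclinD3 phosphorylated Rb protein with [33P]-ATP for 1 h at room temperature. Protein was TCA-precipitated on filter plates and bound radioactivity counted. IC50 by nonlinear regression.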

Cdk6/CyclinD3 = Cdk6/CyclinD3 (Homo sapiens (Human), UniProt Q00534); test: Cdk6 kinase inhibition assay with recombinant Cdk6/CyclinD3, Rb substrate, [33P]-ATP filter plate; format: biochemical; settings: 25 μM ATP, read-out: Cdk 6 IC50
Cdk6/CyclinD3, sequence (Q00534 whole entry): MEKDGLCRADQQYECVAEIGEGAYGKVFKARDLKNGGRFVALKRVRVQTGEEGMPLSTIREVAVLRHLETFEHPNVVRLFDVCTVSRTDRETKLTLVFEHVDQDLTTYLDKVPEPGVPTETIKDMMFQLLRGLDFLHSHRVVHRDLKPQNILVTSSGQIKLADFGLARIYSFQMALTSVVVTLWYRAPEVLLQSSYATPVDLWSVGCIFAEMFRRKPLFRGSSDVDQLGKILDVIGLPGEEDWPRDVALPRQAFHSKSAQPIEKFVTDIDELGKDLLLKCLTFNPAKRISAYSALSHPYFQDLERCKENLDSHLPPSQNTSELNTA
Cdk6/CyclinD3, sequence (P30281 whole entry partner): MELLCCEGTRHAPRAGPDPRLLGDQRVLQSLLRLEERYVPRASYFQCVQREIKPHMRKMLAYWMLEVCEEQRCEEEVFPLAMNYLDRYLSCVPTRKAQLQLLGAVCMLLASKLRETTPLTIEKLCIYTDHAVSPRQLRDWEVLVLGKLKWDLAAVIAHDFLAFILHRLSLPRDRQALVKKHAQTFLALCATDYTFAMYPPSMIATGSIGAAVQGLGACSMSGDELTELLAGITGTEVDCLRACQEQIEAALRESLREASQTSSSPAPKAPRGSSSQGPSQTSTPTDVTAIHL
Method: The Cdk4 and Cdk6 inhibitory activity of the compounds is measured with a kinase inhibition assay using recombinant Cdk4/CyclinD1 or Cdk6/CyclinD3 protein complexes. The protein substrate used in the assay is the retinoblastoma protein (Rb). The kinase reactions are carried out in a 96-well filter plate (MSDV N6B50, Millipore). […] The mixture is incubated at room temperature for 1 hour and the proteins precipitated with an equal volume of 20% TCA. The plates are washed with 10% TCA according to the manufacturer's instruction and dried at room temperature. The amount of the phosphorylated Rb is determined with a TopCount (PerkinElmer). The IC50 of a compound is determined by nonlinear regression curve fitting using software program Prism 5 (GraphPad Software).

Cdk4/CyclinD1, sequence (P11802 whole entry): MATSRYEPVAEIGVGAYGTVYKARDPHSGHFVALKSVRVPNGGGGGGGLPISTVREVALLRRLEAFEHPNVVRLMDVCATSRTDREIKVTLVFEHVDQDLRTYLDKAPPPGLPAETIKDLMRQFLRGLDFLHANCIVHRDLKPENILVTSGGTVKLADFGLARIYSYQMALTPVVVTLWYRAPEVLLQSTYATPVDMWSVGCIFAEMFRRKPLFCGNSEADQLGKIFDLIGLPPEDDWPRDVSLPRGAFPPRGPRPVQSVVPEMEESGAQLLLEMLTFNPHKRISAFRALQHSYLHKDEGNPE
Cdk4/CyclinD1, sequence (P24385 whole entry partner): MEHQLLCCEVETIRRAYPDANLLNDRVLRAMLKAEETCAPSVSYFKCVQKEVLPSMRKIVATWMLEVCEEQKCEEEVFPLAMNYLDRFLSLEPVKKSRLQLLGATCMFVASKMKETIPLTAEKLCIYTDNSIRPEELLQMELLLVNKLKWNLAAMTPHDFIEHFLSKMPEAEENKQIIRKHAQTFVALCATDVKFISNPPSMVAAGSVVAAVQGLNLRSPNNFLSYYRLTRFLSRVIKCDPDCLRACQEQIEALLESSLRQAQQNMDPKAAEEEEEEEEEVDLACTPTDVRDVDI

Row | SMILES | IC50 (Cdk4/CyclinD1) [nM] | IC50 (Cdk6/CyclinD3) [nM]
1 | CNC1CCN(c2ccc(Nc3ncc4c5ccncc5n(C5CCCC5)c4n3)nn2)CC1 [Example 77] | 3 | 11
2 | O=S1(=O)CCC(Nc2ccc(Nc3ncc4c5ccncc5n(C5CCCC5)c4n3)nn2)C1 (stereo not shown) [Example 93] | 3.1 | 15.9
3 | O=S1(=O)CCN(c2ccc(Nc3ncc4c5ccncc5n(C5CCCC5)c4n3)nn2)CC1 [Example 94] | 4.9 | 9.2
4 | c1cc2c3cnc(Nc4ccc(NC5CCNCC5)nn4)nc3n(C3CCCC3)c2cn1 [Example 96] | 16.2 | 12.4
5 | NCC1CCN(c2ccc(Nc3ncc4c5ccncc5n(C5CCCC5)c4n3)nn2)CC1 [Example 101, 4-Aminomethyl-1-(6-((9-cyclopentyl-9H-pyrido[4′,3′:4,5]pyrrolo[2,3-d]pyrimidin-2-yl)amino)-3-pyridazinyl)-piperidine] | 4 | 8.8
6 | OC1CCN(c2ccc(Nc3ncc4c5ccncc5n(C5CCCC5)c4n3)nn2)CC1 [Example 102] | 3.1 | 11.1
7 | OCC1CCN(c2ccc(Nc3ncc4c5ccncc5n(C5CCCC5)c4n3)nn2)CC1 [Example 103] | 5.6 | 2.6
8 | O[C@H]1CCCN(c2ccc(Nc3ncc4c5ccncc5n(C5CCCC5)c4n3)nn2)C1 [Example 105] | 6.7 | 7.1
9 | c1cc2c3cnc(Nc4ccc(N5CCCCC5)nn4)nc3n(C3CCCC3)c2cn1 [Example 107] | 8.4 | 48
10 | N[C@H]1CCN(c2ccc(Nc3ncc4c5ccncc5n(C5CCCC5)c4n3)nn2)C1 [Example 108] | 12 | 15.7
11 | N[C@@H]1CCN(c2ccc(Nc3ncc4c5ccncc5n(C5CCCC5)c4n3)nn2)C1 [Example 109] | 1.9 | 11
12 | c1cc2c3cnc(Nc4ccc(N5CCCNCC5)nn4)nc3n(C3CCCC3)c2cn1 [Example 117] | 5.5 | 6.8
13 | CN(C)C1CCN(c2ccc(Nc3ncc4c5ccnc(Cl)c5n(C5CCCC5)c4n3)nc2)CC1 [Example 153, 8-Chloro-9-cyclopentyl-N-(5-(4-(dimethylamino)-1-piperidinyl)-2-pyridinyl)-9H-pyrido[4′,3′:4,5]pyrrolo[2,3-d]pyrimidin-2-amine] | 1 | 2.8
14 | CCC(C)(C)n1c2cnccc2c2cnc(Nc3ccc(N4CCC(N(C)C)CC4)nn3)nc21 [Example 156, N-(6-(4-(dimethylamino)-1-piperidinyl)-3-pyridazinyl)-9-(1,1-dimethylpropyl)-9H-pyrido[4′,3′:4,5]pyrrolo[2,3-d]pyrimidin-2-amine] | 7 | 14
15 | CCC(C)(C)n1c2cnccc2c2cnc(Nc3ccc(N4CCNCC4)cn3)nc21 [Example 157, 9-(1,1-dimethylpropyl)-N-(5-(1-piperazinyl)-2-pyridinyl)-9H-pyrido-[4′,3′:4,5]pyrrolo[2,3-d]pyrimidin-2-amine] | 30 | 25
16 | CN(C)C1CC2CCC(C1)N2c1ccc(Nc2ncc3c4ccncc4n(C4CCCC4)c3n2)nc1 (stereo not shown) [Example 158, 9-cyclopentyl-N-(5-(3-(dimethylamino)-8-azabicyclo[321]oct-8-yl)-2-pyridinyl)-9H-pyrido[4′,3′:4,5]pyrrolo[2,3-d]pyrimidin-2-amine] | 5.4 | 5.3
17 | CCC(CC)n1c2cnccc2c2cnc(Nc3ccc(N4CCNCC4)cn3)nc21 [Example 161, 9-(1-Ethylpropyl)-N-(5-(1-piperazinyl)-2-pyridinyl)-9H-pyrido[4′,3′:4,5]pyrrolo[2,3-d]pyrimidin-2-amine] | 3.6 | 16
18 | CCC(CC)n1c2cnccc2c2cnc(Nc3ccc(N4CCC(N(C)C)CC4)nn3)nc21 [Example 163, N-(6-(4-(Dimethylamino)-1-piperidinyl)-3-pyridazinyl)-9-(1-ethylpropyl)-9H-pyrido[4′,3′:4,5]pyrrolo[2,3-d]pyrimidin-2-amine] | 17 | 16
19 | O[C@H]1CCN(Cc2csc(Nc3ncc4c5ccncc5n(C5CCCC5)c4n3)n2)C1 [Example 165, (3S)-1-((2-((9-Cyclopentyl-9H-pyrido[4′,3′:4,5]pyrrolo[2,3-d]pyrimidin-2-yl)amino)-1,3-thiazol-4-yl)methyl)-3-pyrrolidinol] | 8.5 | 17
20 | c1cc(Nc2ncc3c4sncc4n(C4CCCC4)c3n2)ncc1N1CCNCC1 [Example 168, 4-Cyclopentyl-N-(5-(1-piperazinyl)-2-pyridinyl)-4H-isothiazolo[5′,4′:4,5]pyrrolo[2,3-d]pyrimidin-6-amine] | 10000 | 10000
21 | CN(C)C1CCN(c2ccc(Nc3ncc4c5ccnc(F)c5n(CC5CC5)c4n3)nn2)CC1 [Example 169] | 140 | 150
22 | O[C@H]1CCN(Cc2csc(Nc3ncc4c5ccnc(F)c5n(C5CCCC5)c4n3)n2)C1 [Example 181, (3S)-1-((2-((9-Cyclopentyl-8-fluoro-9H-pyrido[4′,3′:4,5]pyrrolo[2,3-d]pyrimidin-2-yl)amino)-1,3-thiazol-4-yl)methyl)-3-pyrrolidinol] | 15 | 26
23 | Oc1ccc2c3cnc(Nc4ccc(N5CCNCC5)cn4)nc3n(C3CCCC3)c2n1 [Example 183, 9-Cyclopentyl-2-((5-(1-piperazinyl)-2-pyridinyl)amino)-9H-pyrido[3′,2′:4,5]pyrrolo[2,3-d]pyrimidin-7-ol] | 142 | 104
24 | Cn1c(=O)ccc2c3cnc(Nc4ccc(N5CCNCC5)cn4)nc3n(C3CCCC3)c21 [Example 184, 9-Cyclopentyl-8-methyl-2-((5-(1-piperazinyl)-2-pyridinyl)amino)-8,9-dihydro-7H-pyrido[3′,2′:4,5]pyrrolo[2,3-d]pyrimidin-7-one] | 8.6 | 31
25 | OCC1CCN(c2ccc(Nc3ncc4c5ccnc(F)c5n(C5CCCC5)c4n3)nc2)CC1 [Example 187, (1-(6-((9-Cyclopentyl-8-fluoro-9H-pyrido[4′,3′:4,5]pyrrolo[2,3-d]pyrimidin-2-yl)amino)-3-pyridinyl)-4-piperidinyl)methanol] | 2.9 | 2.8
26 | N#Cc1nccc2c3cnc(Nc4ccc(N5CCNCC5)cn4)nc3n(C3CCCC3)c12 [Example 188, 9-Cyclopentyl-2-((5-(1-piperazinyl)-2-pyridinyl)amino)-9H-pyrido[4′,3′:4,5]pyrrolo[2,3-d]pyrimidine-8-carbonitrile] | 27 | 13.4

The remaining compounds from weak to strong by IC50 (Cdk4/CyclinD1), led by results:

Row | IC50 (Cdk4/CyclinD1) [nM] | IC50 (Cdk6/CyclinD3) [nM] | SMILES
27 | 10000 | 110 | CCC(CC)n1c2cnccc2c2cnc(Nc3ccc(N4CC[C@@H](O)C4)nn3)nc21 [Example 162, (3R)-1-(6-((9-(1-Ethylpropyl)-9H-pyrido[4′,3′:4,5]pyrrolo[2,3-d]pyrimidin-2-yl)-amino)-3-pyridazinyl)-3-pyrrolidinol]
28 | 430 | 396 | c1cc2c3cnc(Nc4ccc(NCC5CNC5)nn4)nc3n(C3CCCC3)c2cn1 [Example 97]
29 | 145 | 149 | Cn1c(=O)ccc2c3cnc(Nc4ccc(N5CC[C@@H](O)C5)cn4)nc3n(C3CCCC3)c21 [Example 185, 9-Cyclopentyl-2-((5-((3R)-3-hydroxy-1-pyrrolidinyl)-2-pyridinyl)amino)-8-methyl-8,9-dihydro-7H-pyrido[3′,2′:4,5]pyrrolo[2,3-d]pyrimidin-7-one]
30 | 113 | 16 | COc1ccc2c3cnc(Nc4ccc(N5CCNCC5)cn4)nc3n(C3CCCC3)c2n1 [Example 182, 9-Cyclopentyl-7-methoxy-N-(5-(1-piperazinyl)-2-pyridinyl)-9H-pyrido[3′,2′:4,5]pyrrolo[2,3-d]pyrimidin-2-amine]
31 | 4.4 | 19.7 | c1cc2c3cnc(Nc4ccc(N5CCCC5)nn4)nc3n(C3CCCC3)c2cn1 [Example 111]
32 | 4 | 24.3 | c1cc2c3cnc(Nc4ccc(N5CCOCC5)nn4)nc3n(C3CCCC3)c2cn1 [Example 106]
33 | 3.6 | 6.2 | c1cc2c3cnc(Nc4nc(CN5CCNCC5)cs4)nc3n(C3CCCC3)c2cn1 [Example 164, 9-Cyclopentyl-N-(4-(1-piperazinylmethyl)-1,3-thiazol-2-yl)-9H-pyrido-[4′,3′:4,5]pyrrolo[2,3-d]pyrimidin-2-amine]
34 | 3.3 | 14 | O[C@@H]1CCCN(c2ccc(Nc3ncc4c5ccncc5n(C5CCCC5)c4n3)nn2)C1 [Example 104]
35 | 2.5 | 26.6 | c1cc2c3cnc(Nc4ccc(NCC5CCNC5)nn4)nc3n(C3CCCC3)c2cn1 (stereo not shown) [Example 98]
36 | 2.5 | 4.8 | CC(C)n1c2cnccc2c2cnc(Nc3ccc(N4CCC(N(C)C)CC4)nn3)nc21 [Example 160, N-(6-(4-(Dimethylamino)-1-piperidinyl)-3-pyridazinyl)-9-(1-methylethyl)-9H-pyrido[4′,3′:4,5]pyrrolo[2,3-d]pyrimidin-2-amine]
37 | 2 | 4.3 | Clc1nccc2c3cnc(Nc4ccc(N5CCNCC5)cn4)nc3n(C3CCCC3)c12 [Example 152, 8-Chloro-9-cyclopentyl-N-(5-(1-piperazinyl)-2-pyridinyl)-9H-pyrido[4′,3′:4,5]pyrrolo[2,3-d]pyrimidin-2-amine]
38 | 1.6 | 10 | NC1CCN(c2ccc(Nc3ncc4c5ccncc5n(C5CCCC5)c4n3)nn2)CC1 [Example 114]

Reference: patent US8841312B2, “Fused pyridine, pyrimidine and triazine compounds as cell cycle inhibitors” (Amgen Inc., priority 2007, dated 2014)
